Results on 40 compounds are retold here after ChEMBL document CHEMBL1201862, “PubChem BioAssay data set” (2004).

The source made the active and inactive calls. A value given as a limit tells only on which side of the number the result lay.

Test [1] is described as follows: inhibitors of intracellular T. cruzi replication, confirmation, NIH3T3 host cells, beta-gal luminescence (AID 2044).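 Note: intracellular parasites grown in NIH/3T3 mouse fibroblasts as host cells; luminescent beta-galactosidase reporter signal from transgenic T. cruzi replicating inside host cells; inhibitors lower the luminescence signal.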 It counts as functional, cell-based.
Test [2] in a line: cytotoxicity toward NIH3T3 fibroblasts, dose response, counter-screen, cell-based, ATP luminescence, mouse fibroblasts (AID 2010).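 Note: cells exposed to compound for about 90 hours before reading.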 It is filed as functional.
Test [3] concerns the target T1, Heat shock factor protein 1 (Mus musculus, UniProt P38532).
T1 sequence (P38532 whole entry): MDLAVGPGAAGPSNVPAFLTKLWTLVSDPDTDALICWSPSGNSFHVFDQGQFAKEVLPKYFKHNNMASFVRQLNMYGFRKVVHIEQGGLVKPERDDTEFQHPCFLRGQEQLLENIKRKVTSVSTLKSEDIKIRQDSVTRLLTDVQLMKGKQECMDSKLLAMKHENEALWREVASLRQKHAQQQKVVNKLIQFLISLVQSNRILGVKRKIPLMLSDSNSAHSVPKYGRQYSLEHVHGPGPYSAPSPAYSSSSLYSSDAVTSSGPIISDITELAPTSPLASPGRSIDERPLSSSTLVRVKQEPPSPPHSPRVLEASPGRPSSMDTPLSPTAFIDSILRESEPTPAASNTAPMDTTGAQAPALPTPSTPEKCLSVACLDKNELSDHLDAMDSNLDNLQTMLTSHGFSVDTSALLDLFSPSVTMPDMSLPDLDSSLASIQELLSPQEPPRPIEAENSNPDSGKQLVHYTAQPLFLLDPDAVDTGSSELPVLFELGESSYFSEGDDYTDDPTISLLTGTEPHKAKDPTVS
As to the kind of experiment: HSF1 potentiators in luciferase reporter cells, confirmation, cell-based, NIH3T3, luminescence, dose retest (AID 435004).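 Note: stress induced by proteasome inhibitor MG132 added 30 min after compound; luciferase reporter driven by HSF1 response element in NIH3T3 cells; actives raise luminescence as potentiators of the MG132 stress response.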 It is filed as functional.

Test [4] deals with T2, Replicative DNA helicase DnaB (Mycobacterium tuberculosis, UniProt P9WMR3).
T2 sequence (P9WMR3 whole entry): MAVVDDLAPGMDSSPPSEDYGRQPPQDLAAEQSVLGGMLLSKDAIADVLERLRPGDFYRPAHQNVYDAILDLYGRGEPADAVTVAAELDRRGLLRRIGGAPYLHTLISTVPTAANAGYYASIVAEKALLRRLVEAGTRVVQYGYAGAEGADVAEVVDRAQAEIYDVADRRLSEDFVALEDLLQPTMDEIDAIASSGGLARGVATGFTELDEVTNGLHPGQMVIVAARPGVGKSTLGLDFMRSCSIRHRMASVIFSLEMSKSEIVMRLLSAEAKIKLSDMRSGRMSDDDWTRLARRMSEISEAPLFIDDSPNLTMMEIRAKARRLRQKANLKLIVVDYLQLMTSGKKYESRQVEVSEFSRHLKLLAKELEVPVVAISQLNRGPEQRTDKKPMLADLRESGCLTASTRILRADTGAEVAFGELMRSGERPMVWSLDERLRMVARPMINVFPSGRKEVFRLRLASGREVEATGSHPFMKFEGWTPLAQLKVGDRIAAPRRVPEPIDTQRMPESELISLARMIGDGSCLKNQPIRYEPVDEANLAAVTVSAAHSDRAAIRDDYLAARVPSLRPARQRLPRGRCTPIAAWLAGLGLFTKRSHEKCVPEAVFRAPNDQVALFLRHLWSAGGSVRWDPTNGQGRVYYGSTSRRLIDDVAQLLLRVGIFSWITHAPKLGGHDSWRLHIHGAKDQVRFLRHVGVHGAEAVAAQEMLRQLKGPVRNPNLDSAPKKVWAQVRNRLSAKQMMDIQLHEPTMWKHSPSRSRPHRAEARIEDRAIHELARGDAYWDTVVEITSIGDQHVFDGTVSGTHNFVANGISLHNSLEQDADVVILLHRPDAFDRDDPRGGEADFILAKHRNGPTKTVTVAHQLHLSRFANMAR
In words: DnaB intein splicing inhibitors, dose response, biochemical, cell-free fluorescence (AID 449749). It is filed as functional.

The target in the next test is T3, Protein RecA (Mycobacterium tuberculosis, UniProt P9WHJ3).
T3 sequence (P9WHJ3 whole entry): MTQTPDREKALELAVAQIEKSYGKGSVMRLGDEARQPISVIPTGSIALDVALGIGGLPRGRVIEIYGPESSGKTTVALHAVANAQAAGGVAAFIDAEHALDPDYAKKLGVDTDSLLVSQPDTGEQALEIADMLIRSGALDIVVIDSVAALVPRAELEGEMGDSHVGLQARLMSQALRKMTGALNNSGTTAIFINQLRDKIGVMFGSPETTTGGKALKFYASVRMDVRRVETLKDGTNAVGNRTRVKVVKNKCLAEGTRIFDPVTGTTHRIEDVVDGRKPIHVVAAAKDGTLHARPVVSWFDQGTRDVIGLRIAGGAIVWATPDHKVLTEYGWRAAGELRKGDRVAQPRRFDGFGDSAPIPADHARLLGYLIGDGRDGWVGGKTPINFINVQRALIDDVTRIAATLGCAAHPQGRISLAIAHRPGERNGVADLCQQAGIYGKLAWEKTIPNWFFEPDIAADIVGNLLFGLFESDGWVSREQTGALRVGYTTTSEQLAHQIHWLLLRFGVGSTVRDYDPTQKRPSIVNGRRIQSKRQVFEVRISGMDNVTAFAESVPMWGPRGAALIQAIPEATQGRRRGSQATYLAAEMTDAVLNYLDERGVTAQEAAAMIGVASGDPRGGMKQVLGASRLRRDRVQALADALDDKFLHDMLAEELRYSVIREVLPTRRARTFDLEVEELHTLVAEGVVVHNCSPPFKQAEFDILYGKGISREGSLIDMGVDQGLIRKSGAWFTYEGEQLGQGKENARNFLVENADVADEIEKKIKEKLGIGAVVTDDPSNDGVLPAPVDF
In words: Fluorescence Cell-Free Homogeneous Dose Retest to Identify Inhibitors of RecA-Intein Splicing Activity. [Related pubchem assays (depositor defined):AID2097, AID2223, AID489010, AID492950]. It is filed as functional.

The target of a further test is Cytochrome P450 2D6 (Homo sapiens, UniProt P10635).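 Note: CYP2D6 member of a cytochrome P450 panel assay.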
Sequence of Cytochrome P450 2D6 (P10635 whole entry): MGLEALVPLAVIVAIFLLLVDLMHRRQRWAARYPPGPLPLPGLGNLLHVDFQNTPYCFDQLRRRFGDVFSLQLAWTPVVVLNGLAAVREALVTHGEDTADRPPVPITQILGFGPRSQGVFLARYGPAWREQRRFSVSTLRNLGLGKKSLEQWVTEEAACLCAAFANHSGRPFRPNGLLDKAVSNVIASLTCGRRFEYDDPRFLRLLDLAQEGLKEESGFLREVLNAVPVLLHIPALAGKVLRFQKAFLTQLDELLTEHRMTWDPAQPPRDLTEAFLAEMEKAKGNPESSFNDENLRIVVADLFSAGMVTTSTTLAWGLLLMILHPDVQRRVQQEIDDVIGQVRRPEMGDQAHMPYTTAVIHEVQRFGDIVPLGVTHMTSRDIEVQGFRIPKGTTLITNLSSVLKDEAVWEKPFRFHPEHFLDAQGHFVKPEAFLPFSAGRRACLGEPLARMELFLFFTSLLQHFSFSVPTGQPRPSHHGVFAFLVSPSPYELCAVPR
A further test has as its target Cytochrome P450 2C9 (Homo sapiens, UniProt P11712).
In another test the test system is INS1. As to the kind of experiment: beta cell apoptosis inhibitors, cytokine rescue, dose response, luminescence, retest (AID 449756).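 Note: cell death triggered by IL-1 beta plus TNF-alpha plus IFN-gamma mixture; protective hits raise ATP signal compared with cytokine alone wells.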 It is filed as functional, cell-based. The note with it: Rattus norvegicus.
Another test has as its target Cytochrome P450 2C19 (Homo sapiens, UniProt P33261). As to the kind of experiment: Cytochrome panel assay with activity outcomes. Panel member name: p450-cyp2c19 Compounds with AC50 equal or less than 10 uM are considered active. It is filed as functional. The conditions noted are these: read-out: AC50.

Sequence of Cytochrome P450 2C9 (P11712 whole entry): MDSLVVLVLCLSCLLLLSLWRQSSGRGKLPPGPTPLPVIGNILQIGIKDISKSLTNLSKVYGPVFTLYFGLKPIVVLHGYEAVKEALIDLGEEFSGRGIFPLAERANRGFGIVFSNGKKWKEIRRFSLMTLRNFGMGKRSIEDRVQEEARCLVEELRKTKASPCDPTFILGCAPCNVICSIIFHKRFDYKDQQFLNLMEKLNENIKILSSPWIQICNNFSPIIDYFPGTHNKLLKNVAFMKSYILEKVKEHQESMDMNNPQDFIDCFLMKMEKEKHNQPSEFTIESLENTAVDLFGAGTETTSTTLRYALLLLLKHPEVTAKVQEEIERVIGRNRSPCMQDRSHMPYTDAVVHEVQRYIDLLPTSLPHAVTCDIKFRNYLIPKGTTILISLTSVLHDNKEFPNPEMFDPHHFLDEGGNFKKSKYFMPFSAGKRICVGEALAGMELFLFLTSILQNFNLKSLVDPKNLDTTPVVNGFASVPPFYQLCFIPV
Sequence of Cytochrome P450 2C19 (P33261 whole entry): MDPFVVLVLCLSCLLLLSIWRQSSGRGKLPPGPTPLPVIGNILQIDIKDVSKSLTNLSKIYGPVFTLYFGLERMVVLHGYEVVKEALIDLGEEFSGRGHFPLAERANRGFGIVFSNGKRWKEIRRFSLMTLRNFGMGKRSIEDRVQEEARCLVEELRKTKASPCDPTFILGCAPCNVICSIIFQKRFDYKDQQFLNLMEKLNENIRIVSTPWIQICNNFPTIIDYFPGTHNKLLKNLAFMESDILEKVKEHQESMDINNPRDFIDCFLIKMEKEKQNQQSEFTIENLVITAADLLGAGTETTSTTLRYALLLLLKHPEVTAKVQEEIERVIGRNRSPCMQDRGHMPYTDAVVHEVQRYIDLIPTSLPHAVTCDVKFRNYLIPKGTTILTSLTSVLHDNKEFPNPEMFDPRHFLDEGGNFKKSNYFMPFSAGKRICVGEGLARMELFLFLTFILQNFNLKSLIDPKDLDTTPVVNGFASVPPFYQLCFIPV

With `Cc1ccc(O)c(C(=O)c2cc(C(=O)NCCc3ccccc3)c(=O)n(CCc3ccccc3)c2)c1`, the EC50 was 2.02 µM (active) in [1] and > 30 µM (not active) in test [2]. On to `CCOC(=O)c1cnc2ccc(C)cc2c1Sc1ccc(F)cc1`, for which the EC50 in test [3] was 11.2 µM (active); at Protein RecA, 2.95 µM (active). Further, the AC50 in test [4] was 5.76 µM (active). For `CN1CCN(C(=O)/C(=C/c2cccnc2)NC(=O)c2cccc(Br)c2)CC1`, in test [3], the EC50 was > 260 µM (inactive). With `Nc1nnc(CSCc2ccccc2Cl)s1`, the EC50 in test [3] is > 260 µM (inactive). On to `O=C(NC1CCCC1)C(c1ccc(F)cc1)N(Cc1ccc(F)cc1)C(=O)c1cc[nH]n1` (configuration not stated), for which the values for the AC50 on Cytochrome P450 2D6 and on Cytochrome P450 2C9 were 25.1 µM (inconclusive) and 39.8 µM (inconclusive), respectively. Take `CCN(CC)S(=O)(=O)c1ccc2oc(C(=O)NC3CCCc4ccccc43)c(C)c2c1` (configuration not stated): the EC50 was 2.1 µM (active) in [1] and > 60 µM (not active) in test [2]. With `CC1CC(C)CN(C(=O)CCS(=O)(=O)c2ccc3c(c2)NC(=O)CS3)C1` (configuration not stated), in test [3], the EC50 was > 260 µM (inactive). For the compound `Cc1nnc2nc(SCC(=O)NCC3CCCO3)n(-c3ccc(Br)cc3)c(N)c1-2` (configuration not stated), the AC50 at Cytochrome P450 2D6 is 10 µM (inconclusive); at Cytochrome P450 2C9 it was 14.1 µM (inconclusive). For `O=C(Nc1ccccc1)N1CCCN(c2ccc(C(F)(F)F)cc2[N+](=O)[O-])CC1`, the EC50 in [3] was > 260 µM (inactive). For the compound `CCc1cc2c3c(c1)C1(C(=O)N3C(C)(C)C=C2C)C(C#N)=C(N)Oc2nc(O)nc(O)c21` (configuration not stated), the AC50 in test [4] was 11 µM (active). Besides, the EC50 at Protein RecA is 2.65 µM (active). Turning to `CS(=O)(=O)C1=NN2C(=N)/C(=C\c3ccc(OC(=O)c4ccco4)cc3)C(=O)N=C2S1`, the AC50 in test [4] was > 380 µM (inactive). The EC50 at Protein RecA was 16.8 µM (active). Consider `CCc1cccc(Nc2c([N+](=O)[O-])nn(-c3ccc4c(c3)OCCO4)[n+]2[O-])c1`, for which the EC50 was 0.272 µM (active) in test [1] and > 60 µM (inconclusive) in test [2].

For `Cc1ccccc1OCCNC(=O)c1ccccc1Sc1ccccc1C#N`, the AC50 on Cytochrome P450 2D6 was 25.1 µM (inconclusive); on Cytochrome P450 2C9, 28.2 µM (inconclusive). On to `Cn1cc(C=O)c(-c2ccc3c(c2)OCCCO3)n1`, for which the EC50 in [3] was > 260 µM (inactive). With `Cc1cccc(C(C)C)c1NC(=O)COC(=O)c1cccc(S(=O)(=O)N2CCc3ccccc3C2)c1`, the EC50 in test [3] was > 260 µM (inactive). Consider `Cc1ccc(N2C(=O)C(Cl)=C(NCc3ccccc3)C2=O)c(C)c1`, for which the AC50 at Cytochrome P450 2D6 was 22.4 µM (inconclusive). Consider `O=C(NC(Nc1cc(C(F)(F)F)ccc1Cl)C(=O)c1ccccc1)c1ccccc1` (configuration not stated), for which the EC50 was 2.17 µM (active) in test [1] and > 30 µM (not active) in test [2].

Regarding `CC(C)(CC(=O)N1CCN(c2ccc(Cl)cc2)CC1)CC1=NS(=O)(=O)c2ccccc2N1`, the AC50 at Cytochrome P450 2D6 was 3.16 µM (inconclusive).

As to `CCOc1ccc(NC(=S)N(Cc2ccc(Cl)cc2)Cc2ccco2)cc1`, the EC50 in [3] was > 260 µM (inactive). Turning to `CCCCCC1=C2CNC(CCC)(C(=O)OC)C=C2C(C)C1=O` (configuration not stated), the AC50 at Cytochrome P450 2D6 is 12.6 µM (inconclusive). `O=C(NCc1cccnc1)c1cc(-c2ccco2)on1`: the AC50 with INS1 is 1.62 µM (active).

Take `CSc1c(-c2ccccc2)nc2ccccc2c1C(=O)O`: the AC50 is 10 µM (inconclusive) at Cytochrome P450 2C19 and 3.16 µM (inconclusive) on Cytochrome P450 2D6. Turning to `Cc1ccc(CN2CCN(CC(=O)N=Nc3c(O)[nH]c4ccccc34)CC2)cc1`, the EC50 in test [1] was 1.08 µM (active); in [2], > 60 µM (not active). Regarding `CCOc1cc(C2C(C#N)=C(N)Oc3[nH]nc(C)c32)ccc1OCCN1CCOCC1` (configuration not stated), in test [4], the concentration at half-maximal activity (AC50) is 50.6 µM (active). Further, at Protein RecA, the EC50 is 4.45 µM (active). As for `O=C1NC(=S)S/C1=C\c1nc2ccccc2[nH]1`, the AC50 in test [4] was > 380 µM (inactive). For the same compound, at Protein RecA, the EC50 was > 120 µM (inactive). `CCN1C(=O)CC(N2CCN(c3ccc(C(=O)c4ccccc4)cc3)CC2)C1=O` (configuration not stated): the EC50 in [3] was > 260 µM (inactive). Consider `O=C(NC1CCSc2ccccc21)c1ccccc1Cl` (configuration not stated), for which the EC50 in test [3] is > 260 µM (inactive).

As to `FC(F)(F)c1ccccc1-c1cc(NCc2cccnc2)ncn1`, at Cytochrome P450 2D6, the AC50 was 25.1 µM (inconclusive).

In the case of `CN(C)CCCn1c(N)c(C#N)c2nc(C#N)c(C#N)nc21`, the EC50 in [3] was 58.3 µM (active).

On to `O=C(CCNc1ccc(F)cc1)c1cc2ccccc2o1`, for which the EC50 in test [1] was 1.12 µM (active); in [2] it was > 60 µM (not active). `CCc1ccc(-c2cc(C(F)(F)F)n3nc(C(=O)Nc4cnn(Cc5ccc(C)cc5)c4)cc3n2)s1`: the AC50 with INS1 is 3.63 µM (active). For `O=C(NC1CCCC1)c1ccc([N+](=O)[O-])s1`, the EC50 in test [1] was 0.546 µM (active); in [2] it was 5.25 µM (active).

For `CCOC(=O)c1c(N=C(S)N2CCOCC2)sc2c1CCN(C(=O)OCC)C2`, the AC50 in test [4] was 5.25 µM (active). For the same compound, on Protein RecA, the EC50 was 20.1 µM (active).

With `COc1cccc(N/C([S-])=C(/C(=O)c2ccc(C)c([N+](=O)[O-])c2)[n+]2ccccc2)c1`, in test [4], the AC50 was 13.3 µM (active). Further, at Protein RecA, the EC50 was 9.74 µM (active). Turning to `NCCCc1ccc2oc3ccccc3c2c1`, the AC50 on Cytochrome P450 2C19 is 7.94 µM (inconclusive); at Cytochrome P450 2D6, 2.51 µM (inconclusive). `COc1ccccc1NC(=O)CN1CCN(CC(=O)Nc2ccccc2Cl)CC1`: in test [3], the EC50 is > 260 µM (inactive). On to `C[C@H](CO)N1C[C@H](C)[C@@H](CN(C)C(=O)NC2CCCCC2)Oc2c(NC(=O)Nc3ccc(C(F)(F)F)cc3)cccc2C1=O`, for which, in the test with INS1, the AC50 was 27.7 µM (active). For `Oc1ccc(/C(Cc2ccc3ccccc3n2)=N\Nc2ccccc2)c(O)c1`, in [4], the AC50 is 78.3 µM (active). On Protein RecA, the EC50 was 13.6 µM (active). For `O=C(N/N=C/c1ccc(-c2cccc([N+](=O)[O-])c2)o1)c1cccs1`, the EC50 in [1] is 0.634 µM (active); in [2], > 60 µM (not active). On to `O=C(N/N=C/c1cccnc1)c1ccccc1NS(=O)(=O)c1cccs1`, for which the AC50 with INS1 is > 260 µM (inactive).

By EC50 is commonly meant the concentration at which the effect is half-maximal. A word on the AC50: it is the concentration giving half of the maximal activity seen.
